Patent US11999727B2 (Tango Therapeutics, Inc., priority 2020, dated 2024)
Where two headings read alike, the source gives them in different places.

Assays:
PRMT5 [1] = target: T1, PRMT5 (Homo sapiens, UniProt O14744); test: PRMT5 biochemical IC50 assay with SAM as cofactor; settings: PRMT5, SAM as cofactor; read-out: SAM IC50
T1 construct: purchased Viva (custom protein)

PRMT5 [2] = target: T1, PRMT5; test: PRMT5 biochemical IC50 assay with no cofactor; settings: PRMT5, no cofactor
Excerpt: Table 1 indicates IC50 values (μM) against PRMT5 for exemplary compounds in the presence of SAM as cofactor, with no cofactor, and with MTA as cofactor, respectively (columns 4-6). […] Ki values can be calculated from the IC50 values as described in the Examples section. As detailed in the Examples section, for the assay performed in the presence of SAM, IC50=Ki×1.5 (Ki=IC50/1.5).

PRMT5 [3] = target: T1, PRMT5; test: PRMT5 biochemical IC50 assay with MTA as cofactor; settings: PRMT5, MTA as cofactor; read-out: MTA IC50
[4] = tested on: HAP1 MTAP-intact cell line; test: SDMA in-cell western assay, HAP1 MTAP-intact; assay type: cell-based; settings: HAP1 MTAP-intact, read-out: MTAP HAP1 intact IC50
Method in brief: (§1)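 Isogenic HAP1 pair: the MTAP-intact line expresses endogenous MTAP, and the deleted line is MTAP-null. Symmetric dimethylarginine was detected by in-cell western and IC50 values derived for each line.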

[5] = tested on: HAP1 MTAP-deleted cell line; test: SDMA in-cell western assay, HAP1 MTAP-deleted; assay type: cell-based; settings: for IC50: HAP1 MTAP-deleted; for MTAP intact/deleted ratio: IC50 ratio HAP1 MTAP-intact / HAP1 MTAP-deleted
Method in brief: as §1

[6] = tested on: HAP1 MTAP-deleted cell line; test: Viability assay, MTAP-deleted cell line; assay type: cell-based; settings: MTAP-deleted cell line, read-out: HAP1 MTAP deleted viability
Excerpt: Table 1 additionally indicates IC50 values in a viability assay for the MTAP-deleted cell line (column 10), indicating the effect of treatment with compound on cell survival.

[7] = Homo sapiens, HAP1, SDMA in-cell western
[8] = Homo sapiens, HAP1, viability assay
[9] = Homo sapiens, HAP1, SDMA in-cell western, read-out: HAP1 MTAP deleted IC50
[10] = SDMA in-cell western, read-out: HAP1 MTAP deleted IC50

T1 sequence (O14744 whole entry): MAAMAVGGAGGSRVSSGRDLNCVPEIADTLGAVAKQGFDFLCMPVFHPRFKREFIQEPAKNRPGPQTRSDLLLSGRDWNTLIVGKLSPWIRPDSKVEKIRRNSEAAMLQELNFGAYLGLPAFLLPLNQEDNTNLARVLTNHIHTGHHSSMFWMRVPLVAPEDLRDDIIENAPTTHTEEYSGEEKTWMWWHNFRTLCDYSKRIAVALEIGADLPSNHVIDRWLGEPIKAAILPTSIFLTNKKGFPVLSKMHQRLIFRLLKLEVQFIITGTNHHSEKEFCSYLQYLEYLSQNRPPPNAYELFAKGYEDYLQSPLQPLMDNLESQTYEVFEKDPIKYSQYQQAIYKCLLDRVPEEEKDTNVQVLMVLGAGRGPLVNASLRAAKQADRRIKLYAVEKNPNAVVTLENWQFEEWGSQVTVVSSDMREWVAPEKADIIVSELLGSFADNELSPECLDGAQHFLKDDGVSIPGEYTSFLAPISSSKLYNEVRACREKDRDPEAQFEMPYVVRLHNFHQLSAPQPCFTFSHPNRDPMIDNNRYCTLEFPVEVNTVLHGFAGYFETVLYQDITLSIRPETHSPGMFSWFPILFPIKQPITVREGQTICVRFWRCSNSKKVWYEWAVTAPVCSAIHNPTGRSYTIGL
T1 sequence (Q9BQA1 whole entry partner): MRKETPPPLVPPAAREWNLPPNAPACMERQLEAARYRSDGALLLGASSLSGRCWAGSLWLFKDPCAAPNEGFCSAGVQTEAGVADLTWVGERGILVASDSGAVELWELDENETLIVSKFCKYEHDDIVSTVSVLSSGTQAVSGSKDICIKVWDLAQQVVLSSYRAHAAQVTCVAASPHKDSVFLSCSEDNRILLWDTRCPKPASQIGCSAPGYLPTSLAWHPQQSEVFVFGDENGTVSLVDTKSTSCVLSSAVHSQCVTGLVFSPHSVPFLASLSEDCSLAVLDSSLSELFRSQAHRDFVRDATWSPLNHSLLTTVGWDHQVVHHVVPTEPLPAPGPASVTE

SMILES	IC50 (PRMT5 [1])	IC50 (PRMT5 [2]; read-out: No Cofactor/ rel IC50)	IC50 (PRMT5 [3])	IC50 [4, 7]	IC50 ([5]; Homo sapiens, HAP1, SDMA in-cell western, read-out: HAP 1 MTAP deleted IC50)	MTAP intact/deleted ratio ([5]; SDMA in-cell western)	IC50 [6, 8]	IC50 (PRMT5 [2]; read-out: No Cofactor/rel IC50)	IC50 [5, 9]	IC50 [5, 10]	IC50 ([4]; SDMA in-cell western)	IC50 ([6]; viability assay)
Cc1cc(NC(=O)C(=O)N2C[C@H](C)CC[C@H]2C2CCCCC2)cnc1N (single isomer, unassigned) [Compound 148]	50 to 500 nM	50 to 500 nM	< 50 nM	100 to 1000 nM	< 100 nM	A (an IC50 ratio greater than or equal to 10 fold)	1000 to 10000 nM					
Cc1cc(NC(=O)C(=O)N2CCCC[C@H]2C(C)C)cnc1N (single isomer, unassigned) [Compound 192]	50 to 500 nM		< 50 nM	> 1000 nM		A (an IC50 ratio greater than or equal to 10 fold)	> 10000 nM	50 to 500 nM	100 to 1000 nM			
CC1(C)CCC[C@@H]2CN(C(=O)C(=O)Nc3cncc(C(N)=O)c3)CC[C@H]21 (single isomer, unassigned) [Compound 193]	50 to 500 nM		< 50 nM	> 1000 nM		A (an IC50 ratio greater than or equal to 10 fold)	1000 to 10000 nM	50 to 500 nM	< 100 nM			
NC(=O)c1cncc(NC(=O)C(=O)N2C[C@H]3CC[C@H](C3)[C@H]2c2ccccc2)c1 (single isomer, unassigned) [Compound 194]	> 500 nM		> 500 nM	> 1000 nM		C (an IC50 ratio of less than 3 fold)	> 10000 nM	> 500 nM	> 1000 nM			
Cc1ncc(NC(=O)C(=O)N2C[C@H](C)CC[C@H]2c2ccccc2)cc1C(N)=O (single isomer, unassigned) [Compound 196]	> 500 nM		> 500 nM	> 1000 nM		C (an IC50 ratio of less than 3 fold)	> 10000 nM	> 500 nM	> 1000 nM			
CC1(C)CCC[C@H]2CN(C(=O)C(=O)Nc3cncc(C(N)=O)c3)CC[C@@H]21 (single isomer, unassigned) [Compound 197]	50 to 500 nM		50 to 500 nM	> 1000 nM		C (an IC50 ratio of less than 3 fold)	> 10000 nM	> 500 nM	> 1000 nM			
C[C@H]1CC[C@H](c2cccs2)N(C(=O)C(=O)Nc2cncc(C(N)=O)c2)C1 (single isomer, unassigned) [Compound 198]	50 to 500 nM		< 50 nM	100 to 1000 nM		A (an IC50 ratio greater than or equal to 10 fold)	< 1000 nM	< 50 nM	< 100 nM			
COc1ncc(NC(=O)C(=O)N2CCCCC2c2ccccc2)cc1C(N)=O (single isomer, unassigned) [Compound 199, 2-methoxy-5-(2-oxo-2-(2-phenylpiperidin-1-yl)acetamido)nicotinamide]	> 500 nM		50 to 500 nM	> 1000 nM		C (an IC50 ratio of less than 3 fold)	> 10000 nM	> 500 nM		> 1000 nM		
Cc1ncc(NC(=O)C(=O)N2C[C@@H](C)CC[C@@H]2c2ccccc2)cc1C(N)=O (single isomer, unassigned) [Compound 200]	50 to 500 nM		< 50 nM	> 1000 nM		A (an IC50 ratio greater than or equal to 10 fold)	1000 to 10000 nM	50 to 500 nM	< 100 nM			
C[C@@H]1CC[C@@H](c2cccs2)N(C(=O)C(=O)Nc2cncc(C(N)=O)c2)C1 (single isomer, unassigned) [Compound 201]	> 500 nM		> 500 nM	> 1000 nM		C (an IC50 ratio of less than 3 fold)	> 10000 nM	> 500 nM	> 1000 nM			
COc1ncc(NC(=O)C(=O)N2CCCCC2c2ccccc2)cc1C(N)=O (single isomer, unassigned) [Compound 202, 2-methoxy-5-(2-oxo-2-(2-phenylpiperidin-1-yl)acetamido)nicotinamide]	50 to 500 nM		< 50 nM			A (an IC50 ratio greater than or equal to 10 fold)		50 to 500 nM		100 to 1000 nM	> 1000 nM	> 10000 nM
Cc1cc(NC(=O)C(=O)N2CCCC[C@@H]2C(C)C)cnc1N (single isomer, unassigned) [Compound 204]	> 500 nM		50 to 500 nM	> 1000 nM		C (an IC50 ratio of less than 3 fold)	> 10000 nM	> 500 nM	> 1000 nM			
NC(=O)c1cncc(NC(=O)C(=O)N2C[C@@H]3CC[C@@H](C3)[C@@H]2c2ccccc2)c1 (single isomer, unassigned) [Compound 205]	50 to 500 nM		50 to 500 nM	> 1000 nM		B (an IC50 ratio greater than or equal to 3 fold but lower than 10 fold)	> 10000 nM	> 500 nM	> 1000 nM			
C[C@H]1CC[C@H](C2CCC2)N(C(=O)C(=O)Nc2cncc(C(N)=O)c2)C1 (single isomer, unassigned) [Compound 211]	50 to 500 nM		< 50 nM	> 1000 nM		A (an IC50 ratio greater than or equal to 10 fold)	1000 to 10000 nM	50 to 500 nM	< 100 nM			
C[C@@H]1CC[C@@H](C2CCC2)N(C(=O)C(=O)Nc2cncc(C(N)=O)c2)C1 (single isomer, unassigned) [Compound 216]	> 500 nM		> 500 nM	> 1000 nM		C (an IC50 ratio of less than 3 fold)	> 10000 nM	> 500 nM	> 1000 nM			
Cc1cccc([C@H]2CC[C@H](C)CN2C(=O)C(=O)Nc2cncc(C(N)=O)c2)c1 (single isomer, unassigned) [Compound 219]	50 to 500 nM		< 50 nM	> 1000 nM		A (an IC50 ratio greater than or equal to 10 fold)	1000 to 10000 nM	< 50 nM	< 100 nM			
Cc1cccc([C@@H]2CC[C@@H](C)CN2C(=O)C(=O)Nc2cncc(C(N)=O)c2)c1 (single isomer, unassigned) [Compound 227]	> 500 nM		> 500 nM	> 1000 nM		C (an IC50 ratio of less than 3 fold)	> 10000 nM	> 500 nM	> 1000 nM			
C[C@@H]1CC[C@@H]2CCCC[C@@H]2N1C(=O)C(=O)Nc1cncc(C(N)=O)c1 (single isomer, unassigned) [Compound 236]	> 500 nM		50 to 500 nM	> 1000 nM		B (an IC50 ratio greater than or equal to 3 fold but lower than 10 fold)	> 10000 nM	> 500 nM	> 1000 nM			
